Laboratory results published in ChEMBL document CHEMBL3603741, “Structure activity relationship of pyridoxazinone substituted RHS analogs of oxabicyclooctane-linked 1,5-naphthyridinyl novel bacterial topoisomerase inhibitors as broad-spectrum antibacterial agents (Part-6)” (Bioorg Med Chem Lett, 2015).
Values after ≈ are worked out from the molar mass of the structure shown.

Assays:
[1] = tested on: Escherichia coli; experiment: Antibacterial activity against Escherichia coli ATCC 25922; format: functional
[2] = tested on: Staphylococcus aureus; experiment: Antibacterial activity against Staphylococcus aureus Smith; format: functional
[3] = tested on: Pseudomonas aeruginosa; experiment: Antibacterial activity against Pseudomonas aeruginosa PAO1; format: functional
[4] = tested on: Acinetobacter baumannii; experiment: Antibacterial activity against Acinetobacter baumannii IID876; format: functional
[5] = tested on: Streptococcus pneumoniae; experiment: Antibacterial activity against Streptococcus pneumoniae IID553; format: functional
[6] = tested on: Enterococcus faecium; experiment: Antibacterial activity against VanA-resistant Enterococcus faecium; format: functional
[7] = tested on: Staphylococcus aureus; experiment: Antibacterial activity against Staphylococcus aureus Smith infected in iv dosed ICR mouse assessed as increase in survival rate administered at 1 hr post infection measured on day 7; format: functional
[8] = tested on: Staphylococcus aureus; experiment: Antibacterial activity against Staphylococcus aureus Smith infected in po dosed ICR mouse assessed as increase in survival rate administered at 1 hr post infection measured on day 7; format: functional
[9] = target: Voltage-gated inwardly rectifying potassium channel KCNH2 (Homo sapiens, UniProt Q12809); experiment: Inhibition of MK499 binding to human ERG
[10] = tested on: Staphylococcus aureus; experiment: Ratio of MIC for quinolone-resistant Staphylococcus aureus MS5935 to MIC for […]; format: functional
[11] = Escherichia coli, ATCC 25922, read-out: MIC
[12] = Staphylococcus aureus, Smith, read-out: MIC
[13] = Pseudomonas aeruginosa, PAO1, read-out: MIC
[14] = Acinetobacter baumannii, IID876, read-out: MIC
[15] = Streptococcus pneumoniae, IID553, read-out: MIC
[16] = Enterococcus faecium, read-out: MIC

Sequence of Voltage-gated inwardly rectifying potassium channel KCNH2 (Q12809 whole entry): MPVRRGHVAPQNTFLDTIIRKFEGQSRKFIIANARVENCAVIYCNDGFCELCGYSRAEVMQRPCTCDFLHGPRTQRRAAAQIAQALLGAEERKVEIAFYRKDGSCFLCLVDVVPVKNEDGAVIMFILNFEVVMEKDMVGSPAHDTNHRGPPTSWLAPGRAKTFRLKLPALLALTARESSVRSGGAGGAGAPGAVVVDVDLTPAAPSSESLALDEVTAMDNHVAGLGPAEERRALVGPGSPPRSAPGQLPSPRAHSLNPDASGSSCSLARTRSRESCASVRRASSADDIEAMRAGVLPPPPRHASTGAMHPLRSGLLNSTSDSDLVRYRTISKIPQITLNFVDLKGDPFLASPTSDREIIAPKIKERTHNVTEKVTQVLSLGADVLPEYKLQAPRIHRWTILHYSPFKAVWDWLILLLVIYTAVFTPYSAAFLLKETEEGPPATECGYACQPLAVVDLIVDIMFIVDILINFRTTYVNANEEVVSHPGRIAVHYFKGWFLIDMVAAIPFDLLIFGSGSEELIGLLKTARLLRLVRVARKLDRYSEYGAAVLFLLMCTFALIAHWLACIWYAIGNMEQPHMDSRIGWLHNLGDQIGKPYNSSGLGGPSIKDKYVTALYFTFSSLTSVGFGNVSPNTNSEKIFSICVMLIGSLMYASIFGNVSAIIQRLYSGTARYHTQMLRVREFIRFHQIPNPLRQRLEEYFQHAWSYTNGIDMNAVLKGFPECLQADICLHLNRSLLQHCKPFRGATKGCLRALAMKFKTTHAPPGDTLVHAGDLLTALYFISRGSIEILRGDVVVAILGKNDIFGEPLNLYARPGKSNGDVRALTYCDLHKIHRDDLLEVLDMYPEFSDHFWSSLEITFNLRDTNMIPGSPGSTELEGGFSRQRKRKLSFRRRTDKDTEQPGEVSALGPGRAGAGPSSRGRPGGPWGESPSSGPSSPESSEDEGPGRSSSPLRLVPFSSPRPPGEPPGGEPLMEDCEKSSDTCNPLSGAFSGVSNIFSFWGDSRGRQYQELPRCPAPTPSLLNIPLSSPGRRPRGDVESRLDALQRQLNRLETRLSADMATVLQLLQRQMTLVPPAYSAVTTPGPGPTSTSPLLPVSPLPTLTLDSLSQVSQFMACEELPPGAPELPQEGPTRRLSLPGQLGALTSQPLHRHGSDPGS

`C=Cc1c(CNC23CCC(CCc4c(F)cnc5ccc(OC)nc45)(CC2)OC3)nc2c(c1C)OCC(=O)N2` showed an MIC [1, 11] of 32 µg/mL (≈ 60 µM), an MIC [2, 12] of 0.25 µg/mL (≈ 0.469 µM) and an MIC [3, 13] of 32 µg/mL (≈ 60 µM). The MIC [4, 14] was 32 µg/mL (≈ 60 µM), the MIC [5, 15] was 8 µg/mL (≈ 15 µM) and the MIC [6, 16] was 32 µg/mL (≈ 60 µM).

In the case of `COc1ccc2ncc(F)c(CCC34CCC(NCc5cc(C)c6c(n5)NC(=O)CO6)(CC3)CO4)c2n1`, the MIC [1, 11] is reported as 8 µg/mL (≈ 15.8 µM), the MIC [2, 12] is reported as 0.5 µg/mL (≈ 0.985 µM) and the MIC [3, 13] is reported as 32 µg/mL (≈ 63 µM). The MIC [4, 14] was 4 µg/mL (≈ 7.88 µM), the MIC [5, 15] was 4 µg/mL (≈ 7.88 µM) and the MIC [6, 16] was 8 µg/mL (≈ 15.8 µM).

Molecule `COc1ccc2ncc(F)c(CCC34CCC(NCc5ccc6c(n5)NC(=O)C(C)O6)(CC3)CO4)c2n1` (single isomer, unassigned; (-)) has an ED50 [7] of 14 mg/kg, an MIC [1] of 2 µg/mL (≈ 3.94 µM) and an MIC [2] of 0.06 µg/mL (≈ 0.118 µM). The MIC [3] was 2 µg/mL (≈ 3.94 µM), the MIC [4] was 1 µg/mL (≈ 1.97 µM) and the ED50 [8] was 28 mg/kg. It also gave an MIC [5] of 0.25 µg/mL (≈ 0.493 µM) and an MIC [6] of 2 µg/mL (≈ 3.94 µM).

`CCc1c(CNC23CCC(CCc4c(F)cnc5ccc(OC)nc45)(CC2)OC3)nc2c(c1C)OCC(=O)N2` gave an MIC [1, 11] of 32 µg/mL (≈ 59.7 µM), an MIC [2, 12] of 2 µg/mL (≈ 3.73 µM) and an MIC [3, 13] of 32 µg/mL (≈ 59.7 µM). For the same molecule, the MIC [4, 14] was 32 µg/mL (≈ 59.7 µM), the MIC [5, 15] was 32 µg/mL (≈ 59.7 µM) and the MIC [6, 16] was 32 µg/mL (≈ 59.7 µM).

Molecule `COc1ccc2ncc(F)c(CCC34CCC(N(C)Cc5ccc6c(n5)NC(=O)CO6)(CC3)CO4)c2n1` has an IC50 [9] of 1.2 µM, an MIC [1, 11] of 16 µg/mL (≈ 31.5 µM) and an MIC [2, 12] of 0.13 µg/mL (≈ 0.256 µM). It also gave an MIC [3, 13] of 32 µg/mL (≈ 63 µM), a Ratio [10] of less than 4 and an MIC [4, 14] of 8 µg/mL (≈ 15.8 µM). It also gave an MIC [5, 15] of 2 µg/mL (≈ 3.94 µM) and an MIC [6, 16] of 8 µg/mL (≈ 15.8 µM).

With `CCOC(=O)C1(C)Oc2ccc(CNC34CCC(CCc5c(F)cnc6ccc(OC)nc56)(CC3)OC4)nc2NC1=O` (single isomer, unassigned; (+)) the MIC [1, 11] was 16 µg/mL (≈ 27.6 µM), the MIC [2, 12] was 16 µg/mL (≈ 27.6 µM) and the MIC [3, 13] was 16 µg/mL (≈ 27.6 µM). It also gave an MIC [4, 14] of 16 µg/mL (≈ 27.6 µM), an MIC [5] of 16 µg/mL (≈ 27.6 µM) and an MIC [6, 16] of 16 µg/mL (≈ 27.6 µM).

Molecule `COC(=O)N(Cc1ccc2c(n1)NC(=O)CO2)C12CCC(CCc3c(F)cnc4ccc(OC)nc34)(CC1)OC2` has an MIC [1, 11] of 64 µg/mL (≈ 116 µM), an MIC [2, 12] of 16 µg/mL (≈ 29 µM) and an MIC [3, 13] of 64 µg/mL (≈ 116 µM). It also gave an MIC [4, 14] of 64 µg/mL (≈ 116 µM), an MIC [5, 15] of 64 µg/mL (≈ 116 µM) and an MIC [6, 16] of 64 µg/mL (≈ 116 µM).

`COc1ccc2ncc(F)c(CCC34CCC(NCc5nc6c(c(C)c5F)OCC(=O)N6)(CC3)CO4)c2n1` gave an MIC [1, 11] of 32 µg/mL (≈ 60.9 µM), an MIC [2, 12] of 0.5 µg/mL (≈ 0.951 µM) and an MIC [3, 13] of 32 µg/mL (≈ 60.9 µM). For the same molecule, the MIC [4, 14] was 32 µg/mL (≈ 60.9 µM), the MIC [5, 15] was 4 µg/mL (≈ 7.61 µM) and the MIC [6, 16] was 32 µg/mL (≈ 60.9 µM).

For `COc1ccc2ncc(F)c(CCC34CCC(NCc5ccc6c(n5)NC(=O)C(C)O6)(CC3)CO4)c2n1` (single isomer, unassigned; (+)), the MIC [1, 11] was 2 µg/mL (≈ 3.94 µM), the MIC [2] was 0.25 µg/mL (≈ 0.493 µM) and the MIC [3, 13] was 2 µg/mL (≈ 3.94 µM). For the same molecule, the MIC [4, 14] was 2 µg/mL (≈ 3.94 µM), the MIC [5, 15] was 0.25 µg/mL (≈ 0.493 µM) and the MIC [6, 16] was 2 µg/mL (≈ 3.94 µM).

`COc1ccc2ncc(F)c(C[C@H](O)C3CCC(NCc4nc5c(cc4OC)OCC(=O)N5)CO3)c2n1` (some centres undefined) gave an MIC [1, 11] of 16 µg/mL (≈ 31.2 µM), an MIC [2, 12] of 16 µg/mL (≈ 31.2 µM) and an MIC [3, 13] of 16 µg/mL (≈ 31.2 µM). It also gave a Ratio [10] of less than 4, an MIC [4, 14] of 16 µg/mL (≈ 31.2 µM) and an MIC [5, 15] of 16 µg/mL (≈ 31.2 µM). For the same molecule, the MIC [6, 16] was 16 µg/mL (≈ 31.2 µM).

Work on `COc1ccc2ncc(F)c(CCC34CCC(NCc5ccc6c(n5)NC(=O)C(C)(C)O6)(CC3)CO4)c2n1` yielded an IC50 [9] of 3 µM, an MIC [1, 11] of 2 µg/mL (≈ 3.83 µM) and an MIC [2, 12] of 0.25 µg/mL (≈ 0.479 µM). For the same molecule, the MIC [3, 13] was 2 µg/mL (≈ 3.83 µM), the Ratio [10] was less than 4 and the MIC [4, 14] was 2 µg/mL (≈ 3.83 µM). The MIC [5, 15] was 1 µg/mL (≈ 1.92 µM) and the MIC [6, 16] was 2 µg/mL (≈ 3.83 µM).

For `CCOC(=O)C1(C)Oc2ccc(CNC34CCC(CCc5c(F)cnc6ccc(OC)nc56)(CC3)OC4)nc2NC1=O` (single isomer, unassigned; (-)), the MIC [1] was 8 µg/mL (≈ 13.8 µM), the MIC [2] was 8 µg/mL (≈ 13.8 µM) and the MIC [3] was 8 µg/mL (≈ 13.8 µM). It also gave an MIC [4] of 8 µg/mL (≈ 13.8 µM), an MIC [5, 15] of 8 µg/mL (≈ 13.8 µM) and an MIC [6] of 8 µg/mL (≈ 13.8 µM).
